The values below come from patent US11110091B2, “Modulators of toll-like receptors” (Gilead Sciences, Inc., priority 2008, dated 2021).

In the assay the test system is human Peripheral Blood Mononuclear Cell (PMBC). In words: PBMC assay: cytokine (IFN-α) stimulation at 24 hours. It is filed as cell-based. To be noted: lowest concentration stimulating IFN-α production at least 3-fold over background, Luminex, read-out: IFN MEC. The procedure: Assays were conducted to determine cytokine stimulation at 24 hours from human Peripheral Blood Mononuclear Cell (PMBC) using the compounds of the present invention. The assays were run in duplicate, with 8-point, half-log dilution curves. The compounds of the present invention were diluted from 10 mM DMSO solution. Cell supernatants are assayed directly for IFNα and 1:10 dilution for TNFα. The assays were performed in a similar fashion as described in Bioorg. […] Specifically, cryo-preserved PBMCs were thawed and seeded 96 well plates with 750,000 cells/well in 190 μL/well cell media. The PBMCs were then incubated for 1 hour at 37° C. at 5% CO2. Then, the compounds of the present invention were added in 10 μL cell media at 8 point, half-log dilution titration. The plates were incubated at 37° C. and 5% CO2 for 24 hours and then spinned at 1200 rpm for 10 min, which was followed by collecting supernatant and storing the same at −80° C. Cytokine secretion was assayed with Luminex and Upstate multi-plex kits, using a Luminex analysis instrument. The IFN-α MEC value for a compound was the lowest concentration at which the compound stimulated IFN-α production at least 3-fold over the background as determined using the assay method above.
In the case of `CCOc1nc(N)c2c(n1)N(Cc1cccc(CN3CCCC3)c1)CC(=O)N2` [Example 62], the minimal effective concentration is above 0.03 µM.
Next, `CCCCOc1nc(N)c2c(n1)N(Cc1cccc(CN3CCCC3)c1)CCC(=O)N2` [Example 50]: above 0.03 µM.
Take `CCCCOc1nc(N)c2c(n1)N(Cc1ccc(CN3CCCC3)cc1)C(C)C(=O)N2` (centres unmarked) [Example 65]: the minimal effective concentration is at most 0.03 µM.
`Nc1nc(OC2CCCC2)nc2c1NC(=O)CN2Cc1cccc(CN2CCCC2)c1` [Example 21]: the minimal effective concentration is at most 0.03 µM.
On to `COCCOc1nc(N)c2c(n1)N(Cc1ccc(-c3cccc(CN4CCCC4)c3)cc1)CC(=O)N2` [Example 94], for which the minimal effective concentration is at most 0.03 µM.
Take `Nc1nc(NC2CCCC2)nc2c1NC(=O)CN2Cc1cccc(CN2CCCC2)c1` [Example 41]: the minimal effective concentration is at most 0.03 µM.
Regarding `CCCCOc1nc(N)c2c(n1)N(Cc1ccc3c(c1)CCNC3)CC(=O)N2` [Example 103], the minimal effective concentration was at most 0.03 µM.
In the case of `CCCCOc1nc(N)c2c(n1)N(Cc1ccc3c(c1)CCN(C(C)C)C3)CC(=O)N2` [Example 105], the minimal effective concentration was at most 0.03 µM.
With `CCCCOc1nc(N)c2c(n1)N(Cc1ccc3c(c1)CCN(CC)C3)CC(=O)N2` [Example 104], the minimal effective concentration is at most 0.03 µM.
On to `CCCN(C)C(=O)c1nc(N)c2[nH]c(=O)c(=O)n(Cc3ccc(CN4CCCC4)cc3)c2n1` [Example 93], for which the minimal effective concentration is at most 0.03 µM.
Take `CCC[C@H](C)Oc1nc(N)c2c(n1)N(Cc1cccc(CN3CCCC3)c1)CC(=O)N2` [Example 59]: the minimal effective concentration was at most 0.03 µM.
As for `COCCOc1nc(N)c2[nH]c(=O)c(=O)n(Cc3ccc(-c4cccc(CN5CCCC5)c4)cc3)c2n1` [Example 95], the minimal effective concentration was at most 0.03 µM.
For the compound `CCCCOc1nc(N)c2c(n1)N(Cc1ccc(C)nc1)CC(=O)N2` [Example 111], the minimal effective concentration is above 0.03 µM.
Consider `CCCCNc1nc(N)c2c(n1)N(Cc1cccc(CN3CCCC3)c1)CCC(=O)N2` [Example 76], for which the minimal effective concentration was above 0.03 µM.
Next, `CCCCOc1nc(N)c2c(n1)N(CCCN(Cc1ccccc1)C(=O)CN1CCN(C)CC1)CC(=O)N2` [Example 110]: at most 0.03 µM.
`CCCCOc1nc(N)c2c(n1)N(Cc1ccccc1CN1CCCC1)CC(=O)N2` [Example 57]: the minimal effective concentration was above 0.03 µM.
Take `Nc1nc(OC2CCCC2)nc2c1NC(=O)CN2Cc1ccnc(N2CCOCC2)c1` [Example 69]: the minimal effective concentration is above 0.03 µM.
`CCC[C@@H](C)Oc1nc(N)c2c(n1)N(Cc1ccc(CN3CCCC3)cc1)CC(=O)N2` [Example 60]: the minimal effective concentration is above 0.03 µM.
On to `CCCCCOc1nc(N)c2c(n1)N(Cc1cccc(CN3CCCC3)c1)CC(=O)N2` [Example 12], for which the minimal effective concentration was above 0.03 µM.
In the case of `Nc1nc(NC2CC2)nc2c1NC(=O)CN2Cc1cccc(CN2CCCC2)c1` [Example 35], the minimal effective concentration was above 0.03 µM.
Regarding `Nc1nc(OCc2ccccc2)nc2c1NC(=O)CN2Cc1cccc(CN2CCCC2)c1` [Example 15], the minimal effective concentration is above 0.03 µM.
On to `CCCCSc1nc(N)c2c(n1)N(Cc1cccc(CN3CCCC3)c1)CC(=O)N2` [Example 26], for which the minimal effective concentration was above 0.03 µM.
Take `Nc1nc(NCC2CC2)nc2c1NC(=O)CN2Cc1cccc(CN2CCCC2)c1` [Example 39]: the minimal effective concentration was at most 0.03 µM.
In the case of `Nc1nc(N2CCC2)nc2c1NC(=O)CN2Cc1cccc(CN2CCCC2)c1` [Example 42], the minimal effective concentration is above 0.03 µM.
In the case of `CCCC(C)Oc1nc(N)c2c(n1)N(Cc1ccc(C)nc1)CC(=O)N2` (centres unmarked) [Example 109], the minimal effective concentration was above 0.03 µM.
Consider `CS(=O)(=O)CCNc1nc(N)c2c(n1)N(Cc1cccc(CN3CCCC3)c1)CC(=O)N2` [Example 44], for which the minimal effective concentration is above 0.03 µM.
Consider `CCOP(=O)(CCNc1nc(N)c2c(n1)N(Cc1cccc(CN3CCCC3)c1)CC(=O)N2)OCC` [Example 45], for which the minimal effective concentration was above 0.03 µM.
The figure for `Nc1nc(NCC2CCCO2)nc2c1NC(=O)CN2Cc1cccc(CN2CCCC2)c1` (centres unmarked) [Example 77] is above 0.03 µM; for `COCCOc1nc(N)c2c(n1)N(Cc1cccc(CN3CCCC3)c1)CC(=O)N2` [Example 2] it is at most 0.03 µM.
The figure for `CCCCOc1nc(N)c2c(n1)N(Cc1cccc(CNc3ccccn3)c1)CC(=O)N2` [Example 80] is above 0.03 µM; for `CCCCOc1nc(N)c2c(n1)N(Cc1ccc3c(c1)CCN(CC1CC1)C3)CC(=O)N2` [Example 106] it is above 0.03 µM.
For `CCC(CC)Oc1nc(N)c2c(n1)N(Cc1cccc(CN3CCCC3)c1)CC(=O)N2` [Example 25], the minimal effective concentration was at most 0.03 µM.
Take `Nc1nc(N[C@@H]2CCOC2)nc2c1NC(=O)CN2Cc1cccc(CN2CCCC2)c1` [Example 46]: the minimal effective concentration was above 0.03 µM.
Take `CCCCOc1nc(N)c2c(n1)N(Cc1cccc(CN3CCCC3)c1)CC(=O)N2` [Example 49, 4-amino-2-n-butoxy-8-[3′-(pyrrolidin-1″-ylmethyl)-benzyl]-5,6,7,8-tetrahydropteridin-6-one]: the minimal effective concentration was at most 0.03 µM.
As to `CC(C)(C)CNc1nc(N)c2c(n1)N(Cc1cccc(CN3CCCC3)c1)CC(=O)N2` [Example 34], the minimal effective concentration was above 0.03 µM.
Consider `CCCC(C)Oc1nc(N)c2c(n1)N(Cc1cccc(CN3CCCC3)c1)CC(=O)N2` (centres unmarked) [Example 24], for which the minimal effective concentration is at most 0.03 µM.
On to `COCCOc1nc(N)c2[nH]c(=O)c(=O)n(Cc3cccc(CN4CCCC4)c3)c2n1` [Example 91], for which the minimal effective concentration was above 0.03 µM.
As for `Nc1nc(NC2CCCCC2)nc2c1NC(=O)CN2Cc1cccc(CN2CCCC2)c1` [Example 36], the minimal effective concentration was above 0.03 µM.
As to `Nc1nc(OCC2CC2)nc2c1NC(=O)CN2Cc1cccc(CN2CCCC2)c1` [Example 5, 4-amino-2-{(cyclopropyl)methoxy}-8-[3′-(pyrrolidin-1″-ylmethyl)-benzyl]-5,6,7,8-tetrahydropteridin-6-one], the minimal effective concentration is above 0.03 µM.
Regarding `Nc1nc(OCc2cccnc2)nc2c1NC(=O)CN2Cc1cccc(CN2CCCC2)c1` [Example 16], the minimal effective concentration was above 0.03 µM.
Consider `CCCCOc1nc(N)c2[nH]c(=O)c(=O)n(Cc3cccc(CN4CCCC4)c3)c2n1` [Example 83], for which the minimal effective concentration is at most 0.03 µM.
In the case of `Nc1nc(O[C@@H]2C[C@@H]3C[C@@H]3C2)nc2c1NC(=O)CN2Cc1cccc(CN2CCCC2)c1` [Example 68], the minimal effective concentration was at most 0.03 µM.
The figure for `CCCCOc1nc(N)c2c(n1)N(Cc1cccc(CN3CCCC3)c1)C(O)C(=O)N2` (centres unmarked) [Example 82] is at most 0.03 µM.
Take `CCCCNc1nc(N)c2c(n1)N(Cc1cccc(CN3CCCC3)c1)CC(=O)N2` [Example 32]: the minimal effective concentration was above 0.03 µM.
The figure for `CCCCOc1nc(N)c2c(n1)N(Cc1ccc3c(c1)CN(C(C)C)CC3)CC(=O)N2` [Example 71] is at most 0.03 µM.
For `CCC(CC)COc1nc(N)c2c(n1)N(Cc1cccc(CN3CCCC3)c1)CC(=O)N2` [Example 31], the minimal effective concentration was at most 0.03 µM.
For the compound `CCCCOc1nc(N)c2c(n1)N(Cc1ccc(-c3ccc(CN4CCCC4)cc3)cc1)CC(=O)N2` [Example 100], the minimal effective concentration was at most 0.03 µM.
Take `Nc1nc(OCC2CCC2)nc2c1NC(=O)CN2Cc1cccc(CN2CCCC2)c1` [Example 7, 4-amino-2-{(cyclobutyl)methoxy}-8-[3′-(pyrrolidin-1″-ylmethyl)-benzyl]-5,6,7,8-tetrahydropteridin-6-one]: the minimal effective concentration was above 0.03 µM.
The figure for `CCCN(C)C(=O)c1nc(N)c2c(n1)N(Cc1ccc(CN3CCCC3)cc1)CC(=O)N2` [Example 85] is above 0.03 µM; for `COCCOc1nc(N)c2[nH]c(=O)c(=O)n(Cc3ccc(-c4ccc(CN5CCCC5)cc4)cc3)c2n1` [Example 99] it is at most 0.03 µM; for `CC(C)(O)CCOc1nc(N)c2c(n1)N(Cc1cccc(CN3CCCC3)c1)CC(=O)N2` [Example 28] it is above 0.03 µM.
For `Nc1nc(OCC2CCCC2)nc2c1NC(=O)CN2Cc1cccc(CN2CCCC2)c1` [Example 8, 4-amino-2-{(cyclopentyl)methoxy}-8-[3′-(pyrrolidin-1″-ylmethyl)-benzyl]-5,6,7,8-tetrahydropteridin-6-one], the minimal effective concentration is above 0.03 µM.
With `CCCCNc1nc(N)c2[nH]c(=O)c(=O)n(Cc3cccc(CN4CCCC4)c3)c2n1` [Example 90], the minimal effective concentration was above 0.03 µM.
For `CCCCCc1nc(N)c2c(n1)N(Cc1cccc(CN3CCCC3)c1)CC(=O)N2` [Example 53], the minimal effective concentration is above 0.03 µM.
On to `CCOC(=O)CN(Cc1cccc(CN2CCCC2)c1)c1nc(O[C@@H](C)COC)nc(N)c1[N+](=O)[O-]` [Compound 86], for which the minimal effective concentration is at most 0.03 µM.
Take `Cc1ccc(CN2CC(=O)Nc3c(N)nc(OCC4CCCO4)nc32)cn1` (centres unmarked) [Example 114]: the minimal effective concentration was above 0.03 µM.
With `CCCCOc1nc(N)c2c(n1)N(Cc1ccc(-c3cccc(CN4CCCC4)c3)cc1)CC(=O)N2` [Example 96], the minimal effective concentration is at most 0.03 µM.
Take `Nc1nc(OCCn2ccnc2)nc2c1NC(=O)CN2Cc1cccc(CN2CCCC2)c1` [Example 19]: the minimal effective concentration was above 0.03 µM.
Turning to `CCCCOc1nc(N)c2[nH]c(=O)c(=O)n(Cc3ccc(-c4cccc(CN5CCCC5)c4)cc3)c2n1` [Example 97], the minimal effective concentration was at most 0.03 µM.
